Results from patent US9453008B2, “Antithrombotic and antiatherosclerotic agent and method for producing same (variants)” (PROTON OOO, priority 2011, dated 2016).
“Also recorded” adds a separate entry of the source.

Key:
[1] = tested on: pressor effect of angiotensin I; assay: Pressor effect of angiotensin I after intravenous administration in normotensive narcotized rats; assay type: in vivo, rat
Experimental: (§1) The experiments were performed on spontaneously hypertensive (SHT) and normotensive (NT) narcotized male rats using intravenous administration of the tested compounds. The ability of the compound to reduce arterial blood pressure (BP) in SHT rats and prevent spasmogenic reactions to noradrenalin (NA) and angiotensin I (AI).
(§2) The effects of the compound of formula I on the pressor effects of noradrenaline (NA, 10-15 μg/kg), mesatonum (M, 5 μg/kg) and angiotensin (AI, 5 μg/kg) were studied on normotensive narcotized […]. Antihypertensive action of the compound of formula I was assessed relative to the pressor effects of the control administration of the aforementioned compounds.

[2] = tested on: spontaneously hypertensive (SHT) rats; assay: Blood pressure in narcotized SHT rats, intravenous administration; assay type: in vivo, rat
Experimental: as §1
The compound of formula I was used as a solution in 3% aqueous DMSO. Sodium nitroprusside and nitroglycerin were used as reference drugs.
The administration of the compound of formula I in dose range 0.01-0.1-0.5 and 1.0 mg/kg has exerted dose-dependent antihypertensive effect ranging in time from 30-40 s to 60 min and more.

[3] = tested on: ADP-induced platelet aggregation; assay: ADP-induced platelet aggregation following peroral administration in rabbits; assay type: in vivo, rabbit
Experimental: FIG. 2 is a graph showing the changes in platelet functional activity following peroral administration of the compound I in a model of ADP-induced aggregation in rabbits (% compared to control).
(§3) Antiplatelet activity was assessed by the effect of the compound on platelet aggregation of rabbit blood plasma, induced by ADP (adenosine diphosphate) and arachidonic acid. Platelet aggregation was assessed by the change of optical density of plasma. Studies were performed using both intravenous administration, in comparison with sodium nitroprusside, and oral administration, in comparison with acetylsalicylic acid. Compound I was used in concentrations of 10^−3-10^−7 M (parenteral administration) and in 4-8 and 12 mg/kg doses (oral administration).

[4] = tested on: platelet aggregation induced by arachidonic acid; assay: Platelet aggregation induced by arachidonic acid following peroral administration in rabbits; assay type: in vivo, rabbit
Experimental: FIG. 3 is a graph showing the changes in platelet aggregation, induced by arachidonic acid, following peroral administration of the compound I in rabbits (% compared to control).
as §3
Using arachidonic acid (AA) as an aggregation inductor, the experiments were performed in conditions of oral administration. We consider such experimentation justified by the possibility of different routes of administration for the tested compound, not only intravenous one (unlike sodium nitroprusside).

[5] = General toxicity and tolerability on animals; assay type: in vivo
Experimental: Research of antiplatelet properties of the compound I, its effect on the activity of soluble guanylate cyclase and NO generation was performed by experimentation in vitro, its ability to exert hypotensive and antihypertensive action was studied on animals. General toxicity and tolerability of the compound of formula I were studied on animals.

human neutrophils = assay: FMLP-induced generation of superoxide anion radical by human neutrophils; assay type: cell-based; details: neutrophils weakened by pathological processes
Description: We have also studied the effect of the compound on formylmethionyl-leucyl-phenylalanine (FMLP)—induced generation of superoxide anion radical (O2^−.) by human neutrophils, weakened by pathological processes (histiocytosis, stage 2 hypertension). Such experimentation was chosen due to the fact, that, in order to perform a complete phagocytosis with complete destruction of pathogenic microorganisms, phagocytes, including neutrophils, generate the so-called reactive oxygen species (ROS), including oxygen radicals and compounds easily converting into such radicals. Superoxide anion radical (O2^−.) hydroxyl radical (OH.) and lipid hydroxyperoxides (ROO*) also belong to AOF. All these compounds have one unpaired electron on outer molecular orbital, giving them high reactivity, which causes their interaction with cell molecules: proteins, RNA, DNA, etc, accompanied by the loss of their biological activity.

[6] = tested on: ADP-induced platelet aggregation; assay: ADP-induced platelet aggregation following intravenous administration in rabbits; assay type: in vivo, rabbit
Experimental: FIG. 1 is a graph showing the effect of the compound I and sodium nitroprusside on ADP-induced platelet aggregation following intravenous administration in rabbits (% compared to control).
as §3
In order to make a final conclusion on the ability of the studied compound to inhibit platelet aggregation experiments were performed in conditions of living organism using intravenous and oral administration.
Compound I and sodium nitroprusside (a reference drug) have both inhibited the process of platelet aggregation. However, there were considerable quantitative and temporal differences in their effects. […] This was the only time point where we managed to observe its activity. After 1 hour the effect disappeared.

[7] = tested on: pressor effect of noradrenaline; assay: Pressor effect of noradrenaline after intravenous administration in normotensive narcotized rats; assay type: in vivo, rat
Experimental: as §1, §2

[8] = tested on: pressor action of mesatonum; assay: Pressor effect of mesatonum in normotensive narcotized animals; assay type: in vivo; details: doses 0.01-1.0 mg/kg; mesatonum 5 μg/kg
Experimental: as §2

[9] = tested on: ADP-induced platelet aggregation; assay: ADP-induced platelet aggregation of rabbit blood plasma, in vitro; assay type: cell-based; details: concentrations of 10^−3-10^−7 M; listed as compound of formula I
Experimental: as §3

Compound: CN1CC(CO)O/C1=C(C#N)/C=C1/Nc2ccccc2C1=O (stereo not shown) [Compound I, 2-[2-Cyano-2-[5-(hydroxymethyl)-3-methyl-1,3-oxazolidin-2-ylidene]ethylidene]indolin-3-one]
- Inhibition of pressor reaction (%) induced by Angiotensin I ([1]; 0.01 mg/kg intravenous, 0 - absence of effect): 0%
- Inhibition of pressor reaction (%) induced by Angiotensin I ([1]; 0.05 mg/kg intravenous): 10%
- Inhibition of pressor reaction (%) induced by Angiotensin I ([1]; 0.1 mg/kg intravenous, listed as Compound of formula I): 25-30%
- Inhibition of pressor reaction (%) induced by Angiotensin I ([1]; 0.1 mg/kg intravenous, listed as compound of formula I): 25%
- Inhibition of pressor reaction (%) induced by Angiotensin I ([1]; 0.5 mg/kg intravenous, 0 - absence of effect): 30%
- Inhibition of pressor reaction (%) induced by Angiotensin I ([1]; 1.0 mg/kg intravenous): 30-40%
- Duration of BP reduction ([2]; 0.01 mg/kg dose intravenous): 30 s
- Reduction of BP ([2]; 0.01 mg/kg dose intravenous): 10-12 mmHg
- Reduction of BP, mmHg (Δ) ([2]; 0.01 mg/kg intravenously, 10-20 s): −12 ± 5 mmHg
- Reduction of BP, mmHg (Δ) ([2]; 0.1 mg/kg intravenously, 10-20 s): −15 ± 5 mmHg
- Reduction of BP, mmHg (Δ) ([2]; 0.1 mg/kg intravenously, 5 min): −20 ± 7 mmHg
- Reduction of BP, mmHg (Δ) ([2]; 0.5 mg/kg intravenously, 10-20 s): −10 ± 3 mmHg
- Reduction of BP, mmHg (Δ) ([2]; 0.5 mg/kg intravenously, 5 min): −20 ± 8 mmHg
- Reduction of BP, mmHg (Δ) ([2]; 0.5 mg/kg intravenously, 30 min): −25 ± 8 mmHg
- Reduction of BP, mmHg (Δ) ([2]; 0.5 mg/kg intravenously, 60 min): −30 ± 7 mmHg
- Duration of BP reduction ([2]; 1.0 mg/kg dose intravenous): 3600 s
- Reduction of BP (maximal effect) ([2]; 1.0 mg/kg dose intravenous): 25-30 mmHg
- Reduction of BP, mmHg (Δ) ([2]; 1.0 mg/kg intravenously, 10-20 s): −12 ± 3 mmHg
- Reduction of BP, mmHg (Δ) ([2]; 1.0 mg/kg intravenously, 5 min): −25 ± 7 mmHg
- Reduction of BP, mmHg (Δ) ([2]; 1.0 mg/kg intravenously, 30 min): −30 ± 7 mmHg
- Reduction of BP, mmHg (Δ) ([2]; 1.0 mg/kg intravenously, 60 min): −30 ± 8 mmHg
- Reduction of BP, mmHg (Δ) ([2]; 1.0 mg/kg intravenously, 120 min): −30 ± 8 mmHg
- Duration of effect on ADP-induced aggregation ([3]; enteral administration): about 3 hours
- Inhibition of ADP-induced aggregation (maximal potency) ([3]; peroral, rabbits, after 2 hours): 40%
- Inhibition of ADP-induced aggregation ([3]; peroral, rabbits, after the first hour): 30%
- Inhibition of ADP-induced aggregation (as a tendency) ([3]; peroral, rabbits, persisting for all 4 hours of observation): 15-25%
- Effect on platelet aggregation (statistically significant) ([4]; after 2 hours (inductor not restated)): 32%
- Effect on platelet aggregation ([4]; at 4 hour (inductor not restated)): 38%
- Effect on platelet aggregation (as a tendency) ([4]; end of the first hour (inductor not restated)): up to 10%
- Reduction of platelet aggregation induced by arachidonic acid ([4]; oral, rabbits, 1 hour after the administration): reduced by a third
- Action of AA at the end of the observation period ([4]; oral, rabbits, 4 hours): comparable to the control
- Inhibition of the action of the inductor (AA) ([4]; oral, rabbits, after 2 hour): by over two times
- Duration of effect on AA-induced aggregation ([4]; per os): 2 to 4 h
- General toxicity and tolerability [5]: non-toxic, well tolerated
- Neurotoxicity ([5]; relatively high doses): does not exhibit neurotoxicity
- Effect on reduced ability of human neutrophils to generate reactive oxygen species (human neutrophils): briefly enhances
- Inhibition of induced functional activity of platelets compared with sodium nitroprusside ([6]; intravenous administration to rabbits): as potent as that of sodium nitroprusside, but persists for a longer time
- Time at which inhibition of platelet aggregation stopped/disappeared ([6]; intravenous, rabbits): 3 h
- Time of maximal potency of inhibition of platelet aggregation ([6]; intravenous, rabbits): 60 min
- Inhibition of pressor reaction (%) induced by Noradrenaline ([7]; 0.01 mg/kg intravenous): 25%
- Inhibition of pressor reaction (%) induced by Noradrenaline ([7]; 0.05 mg/kg intravenous): 35%
- Inhibition of pressor reaction (%) induced by Noradrenaline ([7]; 0.1 mg/kg intravenous): 50%
- Inhibition of pressor reaction (%) induced by Noradrenaline ([7]; 0.5 mg/kg intravenous): 60%
- Inhibition of pressor reaction (%) induced by Noradrenaline ([7]; 1.0 mg/kg intravenous): 55-60%
- Effect on the pressor action of M (mesatonum) [8]: does not significantly affect
- In vitro antiplatelet activity (inhibition of ADP-induced platelet aggregation) [9]: significantly inhibits; also recorded: as good as that of acetylsalicylic acid
